Source: patent publication US11365199B2, “Pyrazole compounds as modulators of FSHR and uses thereof” (Merck Patent GmbH, priority 2013, dated 2022)
Read-outs that look alike come from different tables or passages of the source.

Target: T1, FSHR (Homo sapiens, UniProt P23945)
T1 construct: expressed in transfected cells; host or cells: CHO (Cho-FSHR-LUC-1-1-43)
T1 sequence (P23945 18-695): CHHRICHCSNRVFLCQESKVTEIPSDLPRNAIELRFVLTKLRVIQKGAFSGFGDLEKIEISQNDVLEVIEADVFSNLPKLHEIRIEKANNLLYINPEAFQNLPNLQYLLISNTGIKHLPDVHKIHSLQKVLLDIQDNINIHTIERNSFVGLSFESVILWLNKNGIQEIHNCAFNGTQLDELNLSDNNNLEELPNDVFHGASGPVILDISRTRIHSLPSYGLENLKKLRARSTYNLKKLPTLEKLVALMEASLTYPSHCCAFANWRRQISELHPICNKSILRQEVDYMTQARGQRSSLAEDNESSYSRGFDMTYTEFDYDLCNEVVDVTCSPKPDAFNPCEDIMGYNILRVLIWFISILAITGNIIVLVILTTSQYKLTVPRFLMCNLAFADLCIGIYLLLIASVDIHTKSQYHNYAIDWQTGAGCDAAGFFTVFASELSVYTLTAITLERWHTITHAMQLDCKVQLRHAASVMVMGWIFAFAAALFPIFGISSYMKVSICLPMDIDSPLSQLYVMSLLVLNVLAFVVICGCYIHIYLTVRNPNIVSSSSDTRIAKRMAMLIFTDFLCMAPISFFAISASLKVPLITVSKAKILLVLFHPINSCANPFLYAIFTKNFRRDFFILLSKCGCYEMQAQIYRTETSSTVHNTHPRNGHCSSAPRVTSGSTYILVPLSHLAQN
Assay: EC50 of cyclic AMP production in CHO FSHR cells + EC20 FSH (Assay A)
Assay type: cell-based
Summary of the method: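 Cho-FSHR-LUC cells were exposed to compound dilution series with EC20 FSH ([…]) and 200 μM IBMX for 1 h at 37° C. cAMP was read by HTRF (665/620 nm ratio). Effects are percent of the maximal FSH standard response.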

[1] = CHO FSHR cells + EC20 FSH, cAMP HTRF, read-out: Assay A: EC50 of cyclic AMP production

| EC50 [1] [nM] | SMILES | EC50 [nM] |
| --- | --- | --- |
| > 5000 | COc1cc2c(cc1S(=O)(=O)CC(C)C)-c1c(c(C(=O)N3CCOCC3(C)C)nn1-c1ccsc1)CO2 [Compound 127, (3,3-Dimethyl-morpholin-4-yl)-[7-methoxy-8-(2-methyl-propane-1-sulfonyl)-1-thiophen-3-yl-1,4-dihydro-chromeno[4,3-c]pyrazol-3-yl]-methanone] | – |
| > 5000 | [2H]C([2H])([2H])NC(=O)[C@H]1CCC[C@@H](N(C(=O)c2nn(-c3ccsc3)c3c2COc2cc(OC)c(C=C(C)C)cc2-3)C([2H])([2H])[2H])C1 [Compound 107] | – |
| < 100 | COc1cc2c(cc1-c1ccn(C)c1)-c1c(c(C(=O)N(C)CC3(C)COC3)nn1-c1ccsc1)CO2 [Compound 101, 7-Methoxy-8-(1-methyl-1H-pyrrol-3-yl)-1-thiophen-3-yl-1,4-dihydro-chromeno[4,3-c]pyrazole-3-carboxylic acid methyl-(3-methyl-oxetan-3-ylmethyl)-amide] | – |
| 1000 to 5000 | COc1cc2c(cc1C(O)C(C)(C)O)-c1c(c(C(=O)N(C)C(C)(C)C)nn1-c1ccsc1)CO2 (stereo not shown) [Compound 38, 8-(1,2-Dihydroxy-2-methyl-propyl)-7-methoxy-1-thiophen-3-yl-1,4-dihydro-chromeno[4,3-c]pyrazole-3-carboxylic Acid tert-butyl-methyl-amide] | – |
| – | [2H]C([2H])([2H])OCC(C)(C)N(C(=O)c1nn(-c2ccsc2)c2c1COc1cc(OC)c(C=C(C)C)cc1-2)C([2H])([2H])[2H] [Compound 58] | < 100 |
| < 100 | [2H]C([2H])([2H])N(CCN1CCOC1=O)C(=O)c1nn(-c2ccsc2)c2c1COc1cc(OC)c(-c3cn[nH]c3)cc1-2 [Compound 85] | – |
| 100 to 1000 | [2H]C([2H])([2H])OCC(C)(C)NC(=O)c1nn(-c2ccsc2)c2c1COc1cc(OC)c(C=C(C)C)cc1-2 [Compound 59] | – |
| > 5000 | COc1cc2c(cc1OC(C)C)-c1c(c(C(=O)N3CCCC(C(=O)O)CC3)nn1-c1ccsc1)CO2 (stereo not shown) [Compound 25, 1-(8-Isopropoxy-7-methoxy-1-thiophen-3-yl-1,4-dihydro-chromeno[4,3-c]pyrazole-3-carbonyl)-azepane-4-carboxylic acid] | – |
| 100 to 1000 | COc1cc2c(cc1C=C(C)C)-c1c(c(C(=O)N3CCC[C@@H](C(=O)N4CCC4)CC3)nn1-c1ccsc1)CO2 [Compound 45, [(R)-4-(Azetidine-1-carbonyl)-azepan-1-yl]-[7-methoxy-8-(2-methyl-propenyl)-1-thiophen-3-yl-1,4-dihydro-chromeno[4,3-c]pyrazol-3-yl]-methanone] | – |
| > 5000 | COc1cc2c(cc1S(=O)(=O)C(C)C)-c1c(c(C(=O)NC3(C)COC3)nn1-c1ccsc1)CO2 [Compound 188, 7-Methoxy-8-(propane-2-sulfonyl)-1-thiophen-3-yl-1,4-dihydro-chromeno[4,3-c]pyrazole-3-carboxylic Acid (3-methyl-oxetan-3-yl)-amide] | – |
| > 5000 | COc1cc2c(cc1-c1ccn(C)c1)-c1c(c(C(=O)N[C@H]3CC[C@@H](O)C3)nn1-c1ccsc1)CO2 [Compound 173, 7-Methoxy-8-(1-methyl-1H-pyrrol-3-yl)-1-thiophen-3-yl-1,4-dihydro-chromeno[4,3-c]pyrazole-3-carboxylic acid ((1S,3R)-3-hydroxy-cyclopentyl)-amide] | – |
| 100 to 1000 | COc1cc2c(cc1-c1ccn(C)c1)-c1c(c(C(=O)N(C)C3COC3)nn1-c1ccsc1)CO2 [Compound 103, 7-Methoxy-8-(1-methyl-1H-pyrrol-3-yl)-1-thiophen-3-yl-1,4-dihydro-chromeno[4,3-c]pyrazole-3-carboxylic acid methyl-oxetan-3-yl-amide] | – |
| < 100 | CCOCn1cc(-c2cc3c(cc2OC)OCc2c(C(=O)N(C)C(C)(C)C)nn(-c4ccsc4)c2-3)nn1 [Compound 152, 8-(1-Ethoxymethyl-1H-[1,2,3]triazol-4-yl)-7-methoxy-1-thiophen-3-yl-1,4-dihydro-chromeno[4,3-c]pyrazole-3-carboxylic acid tert-butyl-methyl-amide] | – |
